The test has as its target human PCSK9 (Homo sapiens, UniProt Q8NBP7). The experiment in a line: PCSK9 ligand binding TR-FRET assay (interference with binding of human PCSK9 to human LDLR). The note with it: for Max % inhibition: PCSK9 FRET assay, efficacy (Amax), 100% = 1 uM unlabeled human PCSK9, 0% = DMSO; for IC50: TR-FRET, human PCSK9 Alexa Fluor 647 / human LDLR extracellular domain-Europium Kryptate, read-out: PCSK9 FRET Assay IC50. The procedure:
The PCSK9 binding of the compounds of the disclosure were measured using a time resolved fluorescence resonance energy transfer (TR-FRET) assay. This time resolved fluorescence resonance energy transfer (TR-FRET) assay measures the ability of a compound of the present disclosure to interfere with the binding of human PCSK9 to human LDLR, providing measures of both potency (IC50) and efficacy (Amax).
These solutions were pipetted into columns 1 and 11 of the compound plate. Threefold serial dilutions were generated in columns 2-10 and 12-20 of the compound plate by transferring 10 uL into 20 uL of DMSO. Columns 21 and 22 of the compound plate were negative controls containing DMSO alone.
An intermediate plate was generated in a Greiner V bottom plate by transferring 8 uL from each well of the master plate into a corresponding well containing 92 uL of assay buffer and mixing thoroughly.
A Proxi plate-low volume assay plate was used for the assay. […] For the positive control wells in columns 23 and 24 of the plate, 5 uL of unlabeled human PCSK9 was added at 4 uM in assay buffer containing 8% DMSO. Following a 30 minute incubation, 5 uL of 4 nM Human LDLR extracellular domain-Europium Kryptate was added and the mixture was incubated for an additional 2 hours.
The FRET ratio (FRET/Europium) was used for calculations.
Data is expressed as percent inhibition: (value−0%)/(100%−0%).
(In general: In TR-FRET formats the signal depends on donor and acceptor labels being close together.)

SMILES strings stand for the structures.

Drawing on US20230089867A1, “CYCLIC PENTAMER COMPOUNDS AS PROPROTEIN CONVERTASE SUBTILISIN/KEXIN TYPE 9 (PCSK9) INHIBITORS FOR THE TREATMENT OF METABOLIC DISORDER” (Novartis AG, priority 2018, published 2023), this text covers Max % inhibition and IC50 for ten compounds.

What is called IC50 is the midpoint of a concentration-inhibition curve.

Chain of human PCSK9 (Q8NBP7 153-692): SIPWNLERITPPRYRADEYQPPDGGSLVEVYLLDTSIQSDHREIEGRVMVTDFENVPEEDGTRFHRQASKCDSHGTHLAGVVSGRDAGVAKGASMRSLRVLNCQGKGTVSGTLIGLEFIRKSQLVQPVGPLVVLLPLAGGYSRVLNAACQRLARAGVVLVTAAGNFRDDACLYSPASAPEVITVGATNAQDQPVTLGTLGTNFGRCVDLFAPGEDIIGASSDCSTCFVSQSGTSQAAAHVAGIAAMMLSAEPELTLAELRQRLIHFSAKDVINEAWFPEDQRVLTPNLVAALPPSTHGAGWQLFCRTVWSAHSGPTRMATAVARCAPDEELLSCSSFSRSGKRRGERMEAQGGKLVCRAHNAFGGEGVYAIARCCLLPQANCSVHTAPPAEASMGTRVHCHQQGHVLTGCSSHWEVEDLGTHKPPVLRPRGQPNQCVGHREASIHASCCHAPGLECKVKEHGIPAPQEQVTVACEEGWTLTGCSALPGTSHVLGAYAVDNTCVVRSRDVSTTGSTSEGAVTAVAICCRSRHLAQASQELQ
Chain of human PCSK9 (Q8NBP7 31-152 partner limits assumed): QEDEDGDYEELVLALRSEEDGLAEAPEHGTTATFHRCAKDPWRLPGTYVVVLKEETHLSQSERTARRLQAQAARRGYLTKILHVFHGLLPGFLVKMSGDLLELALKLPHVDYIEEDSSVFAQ

Consider `COC[C@@H]1NC(=O)[C@H](CC(=O)N2CCOCC2)N(Cc2ccc(Cl)cc2Oc2ccc(-c3cnc(CN(C)C)n3C)cc2)C(=O)C[C@@H](Cc2ccccc2)C(=O)N(C)[C@H]2CCCC[C@@H]2NC(=O)C[C@H](Cc2ccc(Cl)cc2)N(C)C1=O` [Compound 20, (4S,7S,10S,14R,16aS,20aS)-14-benzyl-11-(4-chloro-2-(4-(2-((dimethylamino)methyl)-1-methyl-1H-imidazol-5-yl)phenoxy)benzyl)-4-(4-chlorobenzyl)-7-(methoxymethyl)-5,16-dimethyl-10-(2-morpholino-2-oxoethyl)hexadecahydrobenzo[l][1,4,7,11,14]pentaazacyclooctadecine-2,6,9,12,15(3H)-pentaone], for which the Max % inhibition is 98.33% and the IC50 turned out to be 1.2 nM.

Regarding `CC(O)c1ncc(-c2ccc(Oc3cc(Cl)ccc3CN3C(=O)C[C@@H](Cc4ccccc4)C(=O)N(C)[C@@H](C)CNC(=O)C[C@H](Cc4ccc(Cl)cc4)N(C)C(=O)[C@H](CO)NC(=O)[C@@H]3C)cc2)n1C` (stereo partly drawn) [Compound 21, (2S,5S,8S,13S,16R)-16-benzyl-1-(4-chloro-2-(4-(2-(1-hydroxyethyl)-1-methyl-1H-imidazol-5-yl)phenoxy)benzyl)-8-(4-chlorobenzyl)-5-(hydroxymethyl)-2,7,13,14-tetramethyl-1,4,7,11,14-pentaazacyclooctadecane-3,6,10,15,18-pentaone], the Max % inhibition is 66.09% and the IC50 is 2.4 nM.

Regarding `COC[C@@H]1NC(=O)[C@H](C)N(Cc2ccc(Cl)cc2Oc2ccc(-c3cnc(CN4CCCC4)n3C)cc2)C(=O)C[C@@H](Cc2ccc(F)cc2F)C(=O)N(C)[C@@H](C)CNC(=O)C[C@H](Cc2ccc(Cl)cc2)N(C)C1=O` [Compound 22, (2S,5S,8S,13S,16R)-1-(4-chloro-2-(4-(1-methyl-2-(pyrrolidin-1-ylmethyl)-1H-imidazol-5-yl)phenoxy)benzyl)-8-(4-chlorobenzyl)-16-(2,4-difluorobenzyl)-5-(methoxymethyl)-2,7,13,14-tetramethyl-1,4,7,11,14-pentaazacyclooctadecane-3,6,10,15,18-pentaone], the Max % inhibition stood at 98.82% and the IC50 is 1.1 nM.

In the case of `CCc1ccc(CN2C(=O)C[C@@H](Cc3ccccc3)C(=O)N(C)[C@H]3CCCC[C@@H]3NC(=O)C[C@H](Cc3ccc(Cl)cc3)N(C)C(=O)[C@H](COC)NC(=O)[C@@H]2C)c(Oc2ccc(-c3cnc(CN4CC5(COC5)C4)n3C)cc2)c1` [Compound 23, (4S,7S,10S,14R,16aS,20aS)-11-(2-(4-(2-(2-oxa-6-azaspiro[3.3]heptan-6-ylmethyl)-1-methyl-1H-imidazol-5-yl)phenoxy)-4-ethylbenzyl)-14-benzyl-4-(4-chlorobenzyl)-7-(methoxymethyl)-5,10,16-trimethylhexadecahydrobenzo[l][1,4,7,11,14]pentaazacyclooctadecine-2,6,9,12,15(3H)-pentaone], the Max % inhibition was 96.76% and the IC50 turned out to be 2.2 nM.

Consider `C[C@H]1CNC(=O)C[C@H](Cc2ccc(Cl)cc2)NC(=O)[C@H](CF)NC(=O)[C@H](C)N(Cc2ccc(Cl)cc2Oc2ccc(-c3cnc(CN4CCCC4)n3C)cc2)C(=O)C[C@@H](Cc2ccccc2)C(=O)N1C` [Compound 25, (2S,5R,8S,13S,16R)-16-benzyl-1-(4-chloro-2-(4-(1-methyl-2-(pyrrolidin-1-ylmethyl)-1H-imidazol-5-yl)phenoxy)benzyl)-8-(4-chlorobenzyl)-5-(fluoromethyl)-2,13,14-trimethyl-1,4,7,11,14-pentaazacyclooctadecane-3,6,10,15,18-pentaone], for which the Max % inhibition is listed as 52.86% and the IC50 was determined as 113 nM.

On to `COC[C@H]1CNC(=O)C[C@H](Cc2ccc(Cl)cc2)N(C)C(=O)[C@H](COC)NC(=O)[C@H](C)N(Cc2ccc(Cl)cc2Oc2ccc(-c3cnc(CN(C)C)n3C)cc2)C(=O)C[C@@H](Cc2ccccc2)C(=O)N1C` [Compound 27, (2S,5S,8S,13R,16R)-16-benzyl-1-(4-chloro-2-(4-(2-((dimethylamino)methyl)-1-methyl-1H-imidazol-5-yl)phenoxy)benzyl)-8-(4-chlorobenzyl)-5,13-bis(methoxymethyl)-2,7,14-trimethyl-1,4,7,11,14-pentaazacyclooctadecane-3,6,10,15,18-pentaone], for which the Max % inhibition was 101.53% and the IC50 is 1.1 nM.

`COC[C@@H]1NC(=O)[C@H](C)N(Cc2ccc(Cl)cc2Oc2ccc(-c3cnc(C4CCCN4C)n3C)cc2)C(=O)C[C@@H](Cc2ccccc2)C(=O)N(C)[C@@H](C)CNC(=O)C[C@H](Cc2ccc(Cl)cc2)N(C)C1=O` (stereo partly drawn) [Compound 28, (2S,5S,8S,13S,16R)-16-benzyl-1-(4-chloro-2-(4-(1-methyl-2-(1-methylpyrrolidin-2-yl)-1H-imidazol-5-yl)phenoxy)benzyl)-8-(4-chlorobenzyl)-5-(methoxymethyl)-2,7,13,14-tetramethyl-1,4,7,11,14-pentaazacyclooctadecane-3,6,10,15,18-pentaone]: the Max % inhibition is 102.04% and the IC50 turned out to be 3.6 nM.

Take `COC[C@@H]1NC(=O)[C@H](CCN(C)C)N(Cc2ccc(Cl)cc2Oc2ccc(-c3cnc(CN(C)C)n3C)cc2)C(=O)C[C@@H](Cc2ccccc2)C(=O)N(C)[C@H]2CCCC[C@@H]2NC(=O)C[C@H](Cc2ccc(Cl)cc2)N(C)C1=O` [Compound 29, (4S,7S,10S,14R,16aS,20aS)-14-benzyl-11-(4-chloro-2-(4-(2-((dimethylamino)methyl)-1-methyl-1H-imidazol-5-yl)phenoxy)benzyl)-4-(4-chlorobenzyl)-10-(2-(dimethylamino)ethyl)-7-(methoxymethyl)-5,16-dimethylhexadecahydrobenzo[l][1,4,7,11,14]pentaazacyclooctadecine-2,6,9,12,15(3H)-pentaone]: the Max % inhibition is reported as 94.90% and the IC50 came to 0.6 nM.

Consider `CCCC#Cc1ncc(-c2ccc(Oc3cc(Cl)ccc3CN3C(=O)C[C@@H](Cc4ccccc4)C(=O)N(C)[C@@H](C)CNC(=O)C[C@H](Cc4ccc(Cl)cc4)N(C)C(=O)[C@H](COC)NC(=O)[C@@H]3C)cc2)n1C` [Compound 30, (2S,5S,8S,13S,16R)-16-benzyl-1-(4-chloro-2-(4-(1-methyl-2-(pent-1-yn-1-yl)-1H-imidazol-5-yl)phenoxy)benzyl)-8-(4-chlorobenzyl)-5-(methoxymethyl)-2,7,13,14-tetramethyl-1,4,7,11,14-pentaazacyclooctadecane-3,6,10,15,18-pentaone], for which the Max % inhibition was determined as 85.21% and the half-inhibitory concentration (IC50) was found to be 59.8 nM.

Regarding `C[C@H]1CNC(=O)C[C@H](Cc2ccc(Cl)cc2)N(C)C(=O)[C@H](C2COC2)NC(=O)[C@H](C)N(Cc2ccc(Cl)cc2Oc2ccc(-c3cnc(CN(C)C)n3C)cc2)C(=O)C[C@@H](Cc2ccccc2)C(=O)N1C` [Compound 31, (2S,5S,8S,13S,16R)-16-benzyl-1-(4-chloro-2-(4-(2-((dimethylamino)methyl)-1-methyl-1H-imidazol-5-yl)phenoxy)benzyl)-8-(4-chlorobenzyl)-2,7,13,14-tetramethyl-5-(oxetan-3-yl)-1,4,7,11,14-pentaazacyclooctadecane-3,6,10,15,18-pentaone], the Max % inhibition came out at 60.09% and the IC50 came out at 787 nM.
